Data from patent US20210032257A1, “(E)-1-(4-(DIMETHYLAMINO)BUT-2-ENOYL)PYRROLIDIN-3-YL 4-((3-ISOPROPYL-5-METHYLPYRAZOLO[1,5-A]PYRIMIDIN-7-YL)AMINO)PIPERIDINE-1-CARBOXYLATE FOR INHIBITING CDK7” (Eli Lilly and Company, priority 2017, published 2021).

Assays:
[1] = system: phospho-carboxyl terminal domain (Ser5) in HCT116 cells; test: p-CTD (S5) cell based Acumen assay; conditions: Homo sapiens, HCT-116, 4 hours, read-out: Relative IC50 for pCTD Ser5
Procedure: HCT116 cells (ATCC CCL-247) are cultured in McCoy's 5A Medium Modified media supplemented with 10% FBS, 1% NaPyr and 1% Pen/Strep and plated (prior to becoming 70% confluent) in 96-well flat-bottom plates at a density of 5,000 cells per well in 100 μL volume. The cells are incubated overnight in a cell culture incubator (5% CO2, 95% Relative Humidity (RH) and 37° C.) and allowed to attach to the plate. The following morning, the cells are dosed with compounds. Compound inhibitors are solubilized at 60 μM in culture medium containing 0.6% DMSO. Subsequently compound serial dilutions (1:3) are prepared over a 60 μM to 0.003 μM range. […]
The following day cells are washed three times with PBS (100 μL/well) and incubated with 50 μL/well of secondary antibody (1:2000 dilution, Goat anti-rabbit IgM ALEXA FLUOR™ 488) in PBS for 1 hour at room temperature. […] Plates are analyzed on Acumen on FL2 (mean intensity), and FL3 (total intensity). Fluorescence plates are scanned with ACUMEN EXPLORER™ [Laser-scanning fluorescence microplate cytometer manufactured by TTP LABTECH LTD] to measure anti-phospho-carboxyl terminal domain at Serine 5 (pCTD). […] The IC50 is determined by curve fitting to a four parameter logistic for each output using GENE DATA™.

[2] = system: phospho-carboxyl terminal domain (Ser2) in HCT116 cells; test: p-CTD (S2) cell based Acumen assay; conditions: Homo sapiens, HCT-116, 4 hours, read-out: relative IC50 for phosphoCTD (S2)
Procedure: HCT116 cells (ATCC CCL-247) are cultured in McCoy's 5A Medium Modified media supplemented with 10% FBS, 1% NaPyr and 1% Pen/Strep and plated (prior to becoming 70% confluent) in 96-well flat-bottom plates at a density of 5,000 cells per well in 100 μL volume. The cells are then incubated overnight in a cell culture incubator (5% CO2, 95% Relative Humidity (RH) and 37° C.) and allowed to attach to the plate. The following morning the cells are dosed with compounds. Compound inhibitors are first solubilized at 60 μM in culture medium containing 0.6% DMSO. Subsequently compound serial dilutions (1:3) are prepared over a […] to […] range. […]
The following day cells are washed three times with PBS (100 μL/well) and incubated with 50 μL/well of secondary antibody (1:2000 dilution, Goat anti-rabbit IgM ALEXA FLUOR™ 488) in PBS for 1 hour at RT. […] Plates are analyzed on Acumen on FL2 (mean intensity), and FL3 (total intensity). Fluorescence plates are scanned with ACUMEN EXPLORER™ [Laser-scanning fluorescence microplate cytometer manufactured by TTP LABTECH LTD] to measure anti-phospho-carboxyl terminal domain at Serine 2 (pCTD). […]
The IC50 is determined by curve fitting to a four parameter logistic for each output using GENE DATA™.

[3] = biological target: CDK9/cyclinT1 (Homo sapiens, UniProt P50750); test: Assay for inhibition of CDK9/CyclinT1 kinase activity (radiolabel filter binding)
Procedure: The IC50 determination for CDK7 and CDK9 are determined as follows.
The IC50 activity of the inhibitor is determined using radiolabel filter binding (FB) assays using the purified human recombinant enzyme in the presence of ATP and peptide substrate. The ATP concentrations chosen are at or near the enzyme Km for ATP. Reactions are carried out in 96 well polystyrene plates in a final volume of 25 μL per well. 5 μL of test compound in 20% DMSO, 10 μL of substrate solution (ATP//[^33P]ATP and CDK7/9 tide) and 10 μL of enzyme solution are mixed. […] The enzyme solution is prepared for a final concentration of 7.5 nM CDK9/cyclinT1 enzyme [Proqinase 0371-0345-1 (Lot 004)] diluted in kinase buffer. Test compounds are serially diluted 1:3 in 20% DMSO to create a 10 point curve at a starting concentration of 2 μM. 20% DMSO buffer alone without test compound is employed as high control (full activity in the absence of any inhibitor), 500 mM EDTA is used to determine the level of background in the absence of enzyme activity (low control). After mixing 5 μL of compounds with 10 μL of enzyme solution the plate is incubated for 0 or 180 minutes at 22° C. After that time the reaction is initiated by the addition of 10 μL substrate solution and incubated for 60 minutes at 22° C. […] 80 μL of MICROSCINT™ is added to each well and read on a scintillation counter after an hour. […]

[4] = biological target: CDK7/CyclinH/Mat1 (Homo sapiens, UniProt P50613); test: Biochemical assay for inhibition of CDK7/CyclinH/MAT1 (radiolabel filter binding)
Procedure: The purpose of this assay is to measure the ability of a compound of the invention to inhibit CDK7/CyclinH/Mat1 complex kinase activity.
The IC50 activity of the inhibitor is determined using radiolabel filter binding (FB) assays using the purified human recombinant enzyme in the presence of ATP//[3^3P]ATP and peptide substrate. The ATP concentrations chosen are at or near the enzyme Km for ATP.
Reactions are carried out in 96 well polystyrene plates in a final volume of 25 μL per well. 5 μL of test compound in 20% DMSO, 10 μL of substrate solution (ATP/33PATP and CDK7/9 tide) and 10 μL of enzyme solution are mixed. […] The enzyme solution is prepared for a final concentration of 1 nM CDK7/CyclinH/Mat1 enzyme [Proqinase 0366-0360-4 Lot 002)] diluted in kinase buffer. Test compounds are serially diluted 1:3 in 20% DMSO to create a 10 point curve at a starting concentration of 20 μM. 20% DMSO buffer alone without test compound is employed as high control (full activity in the absence of any inhibitor), 500 mM EDTA is used to determine the level of background in the absence of enzyme activity (low control). After mixing 5 μL of compounds with 10 μL of enzyme solution the plate is incubated for 0 or 180 minutes at 22° C. After that time the reaction is initiated by the addition of 10 μL substrate solution and incubated for 50 minutes at 22° C. The reaction is terminated by the addition of 80 μL of cold 10% ortophosphoric solution. The Filter Plates (opaque, non-sterile filter plates) are prewashed with 10 μL of 10% orthophosphoric solution to each well. 100 μL of the mixture are transferred to a phosphocellulose filter and incubated at room temperature for 45 minutes. Filter plates are washed with 200 μL 0.5% orthophosphoric acid 3 times on a filter plate processor. Incorporation of 33Pi (counting of “cpm”) is determined by adding 80 μL of MICROSCINT™ to each well and read on a counter after an hour. Data is processed through a [sequence] […] ® tool. Data are analyzed using a 4-parameter nonlinear logistic equation (four-parameter logistic concentration-response curve): Y=bot+[(top-bot)/1+(x/IC50)slope] where Y=% inhibition, X=concentration yielding y % inhibition, Bottom=minimum value of y attained by curve, Top=maximum value of y attained by curve and Slope=steepness of curve at IC50. % Inh=[(median Max−x/median Max−median Min)]·100
IC50: concentration of compound that reduces a given response (ligand binding, enzyme response) by 50%.

[5] = system: cMyc in HCT116 cells; test: cMyc cell based Acumen assay; conditions: Homo sapiens, HCT-116, 4 hours, read-out: Relative IC50 for cMyc

CDK7/CyclinH/Mat1, sequence (P50613 whole entry): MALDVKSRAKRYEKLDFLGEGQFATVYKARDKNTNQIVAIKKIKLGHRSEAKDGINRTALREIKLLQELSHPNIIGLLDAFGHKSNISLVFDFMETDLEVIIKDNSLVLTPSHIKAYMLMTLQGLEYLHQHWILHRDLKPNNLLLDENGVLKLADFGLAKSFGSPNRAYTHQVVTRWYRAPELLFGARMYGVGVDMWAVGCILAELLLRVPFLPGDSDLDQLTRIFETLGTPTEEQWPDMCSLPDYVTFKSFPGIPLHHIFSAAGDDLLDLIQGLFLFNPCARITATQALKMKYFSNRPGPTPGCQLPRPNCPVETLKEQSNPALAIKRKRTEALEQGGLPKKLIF
CDK7/CyclinH/Mat1, sequence (P51946 whole entry partner): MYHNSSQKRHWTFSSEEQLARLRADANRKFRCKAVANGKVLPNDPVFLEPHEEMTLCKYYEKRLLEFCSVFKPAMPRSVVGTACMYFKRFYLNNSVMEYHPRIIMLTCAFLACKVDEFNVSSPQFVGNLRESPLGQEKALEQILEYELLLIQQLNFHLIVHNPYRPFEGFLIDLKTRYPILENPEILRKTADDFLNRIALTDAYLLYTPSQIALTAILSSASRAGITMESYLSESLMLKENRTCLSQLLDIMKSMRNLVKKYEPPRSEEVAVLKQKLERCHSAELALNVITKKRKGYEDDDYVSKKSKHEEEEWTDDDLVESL
CDK7/CyclinH/Mat1, sequence (P51948 whole entry partner): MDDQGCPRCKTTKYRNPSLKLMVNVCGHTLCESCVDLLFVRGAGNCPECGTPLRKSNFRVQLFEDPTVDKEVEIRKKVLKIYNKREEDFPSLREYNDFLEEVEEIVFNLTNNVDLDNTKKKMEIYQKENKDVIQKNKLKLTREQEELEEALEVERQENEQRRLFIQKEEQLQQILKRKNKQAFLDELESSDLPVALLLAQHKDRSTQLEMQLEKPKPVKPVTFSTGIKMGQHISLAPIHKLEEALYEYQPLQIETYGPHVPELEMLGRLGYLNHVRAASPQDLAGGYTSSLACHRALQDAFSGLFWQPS
CDK9/cyclinT1, sequence (P50750 whole entry): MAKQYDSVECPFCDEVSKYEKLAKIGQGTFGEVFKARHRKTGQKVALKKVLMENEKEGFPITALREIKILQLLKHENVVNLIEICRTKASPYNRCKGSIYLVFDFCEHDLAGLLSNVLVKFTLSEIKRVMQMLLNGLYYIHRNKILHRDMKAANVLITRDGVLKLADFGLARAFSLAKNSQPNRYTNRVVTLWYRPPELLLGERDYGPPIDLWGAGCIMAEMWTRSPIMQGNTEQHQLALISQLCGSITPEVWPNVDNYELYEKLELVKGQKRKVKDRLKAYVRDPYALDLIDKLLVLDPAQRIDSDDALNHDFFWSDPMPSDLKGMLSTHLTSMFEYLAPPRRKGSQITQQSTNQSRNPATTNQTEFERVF
CDK9/cyclinT1, sequence (O60563 whole entry partner): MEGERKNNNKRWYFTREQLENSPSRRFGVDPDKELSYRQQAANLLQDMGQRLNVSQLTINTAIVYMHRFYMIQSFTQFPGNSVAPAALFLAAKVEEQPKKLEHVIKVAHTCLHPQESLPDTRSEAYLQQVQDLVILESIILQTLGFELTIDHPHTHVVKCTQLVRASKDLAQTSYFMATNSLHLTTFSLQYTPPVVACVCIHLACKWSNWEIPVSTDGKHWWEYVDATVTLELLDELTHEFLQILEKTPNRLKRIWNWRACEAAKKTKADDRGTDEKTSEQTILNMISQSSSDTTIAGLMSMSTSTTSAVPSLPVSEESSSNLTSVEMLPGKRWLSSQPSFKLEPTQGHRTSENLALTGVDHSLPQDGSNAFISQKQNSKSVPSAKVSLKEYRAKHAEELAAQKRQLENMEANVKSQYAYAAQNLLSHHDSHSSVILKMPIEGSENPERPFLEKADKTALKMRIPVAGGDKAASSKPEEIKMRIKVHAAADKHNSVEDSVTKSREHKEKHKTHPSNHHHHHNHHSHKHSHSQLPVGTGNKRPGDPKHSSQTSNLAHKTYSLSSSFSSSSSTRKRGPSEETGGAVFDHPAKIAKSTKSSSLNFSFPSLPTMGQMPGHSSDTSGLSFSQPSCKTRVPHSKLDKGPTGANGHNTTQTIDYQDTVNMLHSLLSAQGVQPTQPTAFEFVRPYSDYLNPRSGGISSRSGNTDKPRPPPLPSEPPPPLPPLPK

## Cc1cc(NC2CCN(C(=O)O[C@@H]3CCN(C(=O)/C=C/CN(C)C)C3)CC2)n2ncc(C(C)C)c2n1 [Example 3, [(3R)-1-[(E)-4-(dimethylamino)but-2-enoyl]pyrrolidin-3-yl] 4-[(3-isopropyl-5-methyl-pyrazolo[1,5-a]pyrimidin-7-yl)amino]piperidine-1-carboxylate]
[1]
  IC50: 198 nM
[2]
  IC50: 3520 nM
[3]
  IC50: 2450 nM
[4]; IC50 in CDK7, 3 hours of preincubation of CDK7 enzyme
  IC50: 5.06 nM
[4]; IC50 in CDK7, without preincubation
  IC50: 48.7 nM
[5]
  IC50: 57.3 nM
